Values after ≈ are worked out from the molar mass of the structure shown.
Key:
[1] = tested on: fluconazole-susceptible C. albicans strain: CAAL93; assay: Antifungal susceptibility, spectrofluorimetric microdilution, CAAL93; assay type: cell-based; conditions: Candida albicans; concentration inhibiting 50% of control fluorescence; read-out: MIC values CAAL93
Experimental: (§1) Eight strains of Candida spp. with various azoles-susceptibilities were used: • One fluconazole-susceptible C. albicans strain: CAAL93 • Two fluconazole-resistant C. albicans strains: CAAL111 (efflux pump) and CAAL117 (erg11 mutations+voriconazole-resistant) • five fluconazole-resistant Candida non albicans strains: C. krusei (CAKR7, CAKR8), C. glabrata (CAGL2), C. parapsilosis s.l. (CAPA1, CAPA2).
(§2) Antifungal susceptibility was evaluated with a spectrofluorimetric microdilution method.

[2] = tested on: fluconazole-resistant C. albicans strain CAAL111 (efflux pump); assay: microbe, parasite or virus in culture; assay type: cell-based; conditions: Candida albicans, read-out: MIC values CAAL111
Experimental: as §1, §2

[3] = tested on: fluconazole-resistant C. albicans strain CAAL117 (erg11 mutations+voriconazole-resistant); assay: microbe, parasite or virus in culture; assay type: cell-based; conditions: Candida albicans, read-out: MIC values CAAL117
Experimental: as §1, §2

[4] = tested on: fluconazole-resistant C. glabrata (CAGL2); assay: microbe, parasite or virus in culture; assay type: cell-based; conditions: Nakaseomyces glabratus, read-out: MIC values CAGL2
Experimental: as §1, §2

[5] = tested on: fluconazole-resistant C. krusei (CAKR7); assay: microbe, parasite or virus in culture; assay type: cell-based; conditions: Pichia kudriavzevii, read-out: MIC values CAKR7
Experimental: as §1, §2

[6] = tested on: fluconazole-resistant C. krusei (CAKR8); assay: microbe, parasite or virus in culture; assay type: cell-based; conditions: Pichia kudriavzevii, read-out: MIC values CAKR8
Experimental: as §1, §2

[7] = tested on: fluconazole-resistant C. parapsilosis s.l. (CAPA1); assay: microbe, parasite or virus in culture; assay type: cell-based; conditions: Lodderomyces parapsilosis, read-out: MIC values CAPA1
Experimental: as §1, §2

[8] = tested on: fluconazole-resistant C. parapsilosis s.l. (CAPA2); assay: microbe, parasite or virus in culture; assay type: cell-based; conditions: Lodderomyces parapsilosis, read-out: MIC values CAPA2
Experimental: as §1, §2

[9] = tested on: A. fumigatus susceptible strain ASFU76; assay: Antifungal susceptibility, spectrofluorimetric microdilution, ASFU76; assay type: cell-based, Aspergillus fumigatus; conditions: concentration inhibiting 80% of control fluorescence
Experimental: (§3) Eleven strains of A. fumigatus with various itraconazole susceptibility were used: • Five susceptible strains: ASFU7, ASFU35A, ASFU38A, ASFU76 and ASFU78. • Six itraconazole-resistant strains: ASFU77 (erg11 mutation), ASFU13, ASFU17, ASFU19, ASFU20, ASFU23.
(§4) Antifungal susceptibility was evaluated with a spectrofluorimetric microdilution method. MIC was the concentration that was able to inhibit 80% of fluorescence measured in the control wells.

[10] = tested on: A. fumigatus susceptible strain ASFU35A; assay: Antifungal susceptibility, spectrofluorimetric microdilution, ASFU35A; assay type: cell-based, Aspergillus fumigatus; conditions: concentration inhibiting 80% of control fluorescence
Experimental: as §3, §4

[11] = tested on: A. fumigatus susceptible strain ASFU38A; assay: Antifungal susceptibility, spectrofluorimetric microdilution, ASFU38A; assay type: cell-based, Aspergillus fumigatus; conditions: concentration inhibiting 80% of control fluorescence
Experimental: as §3, §4

[12] = tested on: A. fumigatus susceptible strain ASFU7; assay: Antifungal susceptibility, spectrofluorimetric microdilution, ASFU7; assay type: cell-based, Aspergillus fumigatus; conditions: concentration inhibiting 80% of control fluorescence
Experimental: as §3, §4

[13] = tested on: A. fumigatus susceptible strain ASFU78; assay: Antifungal susceptibility, spectrofluorimetric microdilution, ASFU78; assay type: cell-based, Aspergillus fumigatus; conditions: concentration inhibiting 80% of control fluorescence
Experimental: as §3, §4

[14] = tested on: A. fumigatus itraconazole-resistant strain ASFU13; assay: Antifungal susceptibility, spectrofluorimetric microdilution, ASFU13; assay type: cell-based, Aspergillus fumigatus
Experimental: as §3, §4

[15] = tested on: A. fumigatus itraconazole-resistant strain ASFU17; assay: Antifungal susceptibility, spectrofluorimetric microdilution, ASFU17; assay type: cell-based, Aspergillus fumigatus
Experimental: as §3, §4

[16] = tested on: A. fumigatus itraconazole-resistant strain ASFU19; assay: Antifungal susceptibility, spectrofluorimetric microdilution, ASFU19; assay type: cell-based, Aspergillus fumigatus
Experimental: as §3, §4

[17] = tested on: A. fumigatus itraconazole-resistant strain ASFU77 (erg11 mutation); assay: Antifungal susceptibility, spectrofluorimetric microdilution, ASFU77; assay type: cell-based, Aspergillus fumigatus
Experimental: as §3, §4

[18] = tested on: A. fumigatus itraconazole-resistant strain ASFU20; assay: Antifungal susceptibility, spectrofluorimetric microdilution, ASFU20; assay type: cell-based, Aspergillus fumigatus
Experimental: as §3, §4

[19] = tested on: A. fumigatus itraconazole-resistant strain ASFU23; assay: Antifungal susceptibility, spectrofluorimetric microdilution, ASFU23; assay type: cell-based, Aspergillus fumigatus
Experimental: as §3, §4

[20] = tested on: Aspergillus fumigatus (ASFU7) spores; assay: Murine invasive aspergillosis; assay type: in vivo; conditions: neutropenic Swiss mice, ASFU7 spores i.v., 10 mg/kg per os once a day for 5 days
Experimental: Transiently neutropenic female Swiss mice were used for experiments on systemic candidiasis and invasive aspergillosis.
Mice were inoculated intravenously with Aspergillus fumigatus (ASFU7) spores.
Treatment was administrated once a day (10 mg/kg per os) for 5 days. […] Fungal burden of the kidney was evaluated in dead animals during the experimentation or in animals sacrificed at the end of the experimentation.

[21] = tested on: promastigote stage of a Leishmania mexicana strain; assay: Anti-Trypanosomatidae activity, promastigote stage, spectrofluorimetric microdilution; assay type: cell-based; conditions: promastigote stage; 50% of control growth; read-out: L. mexicana (IC50 μM)
Experimental: Compounds were evaluated on the promastigote stage of a Leishmania mexicana strain using a spectrofluorimetric microdilution method. Inhibitory concentration 50 (IC50) was the concentration that inhibited 50% of the control growth.

[22] = concentration inhibiting 80% of control fluorescence

Structure (SMILES): OC(Cn1cncn1)(Cn1cncn1)c1ccc(F)cc1F [FLC, fluconazole, reference compound]
- MIC [1]: 0.036 ± 0.02 µg/mL (≈ 0.118 µM)
- MIC [2]: > 30 µg/mL
- MIC [3]: > 3 µg/mL
- MIC [4]: 10.1 ± 0.61 µg/mL (≈ 33 µM)
- MIC [5]: > 3 µg/mL
- MIC [6]: > 10 µg/mL
- MIC [7]: > 30 µg/mL
- MIC [8]: > 30 µg/mL

Structure (SMILES): CCC(C)n1ncn(-c2ccc(N3CCN(c4ccc(OCC5COC(Cn6cncn6)(c6ccc(Cl)cc6Cl)O5)cc4)CC3)cc2)c1=O (centres unmarked) [ITRA, Itraconazole, reference compound]
- MIC values ASFU76 [9]: 0.50 ± 0.24 µg/mL (≈ 0.709 µM)
- MIC values ASFU35A [10]: 0.24 µg/mL (≈ 0.34 µM)
- MIC values ASFU38A [11]: 0.52 µg/mL (≈ 0.737 µM)
- MIC values ASFU7 [12]: 0.42 ± 0.04 µg/mL (≈ 0.595 µM)
- MIC values ASFU78 [13]: 0.31 µg/mL (≈ 0.439 µM)
- MIC values ASFU13 [14, 22]: >70 µg/mL
- MIC values ASFU17 [15, 22]: >7 µg/mL
- MIC values ASFU19 [16, 22]: >7 µg/mL
- MIC values ASFU77 [17, 22]: >100 µg/mL
- MIC values ASFU20 [18, 22]: >7 µg/mL
- MIC values ASFU23 [19, 22]: >7 µg/mL
- survival ([20]; 14 days, p<0.01): did survive significantly longer
- fungal burden of the kidney ([20]; p<0.05): significantly reduced
- IC50 [21]: 2.5 ± 0.7 µM

Structure (SMILES): C[C@@H](c1ncncc1F)[C@](O)(Cn1cncn1)c1ccc(F)cc1F [VOR, voriconazole, reference compound]
- MIC [1]: 0.005 ± 0.001 µg/mL (≈ 0.0143 µM)
- MIC [2]: 0.458 ± 0.196 µg/mL (≈ 1.31 µM)
- MIC [3]: 1.1 ± 0.1 µg/mL (≈ 3.15 µM)
- MIC [4]: 0.126 ± 0.003 µg/mL (≈ 0.361 µM)
- MIC [5]: 0.817 ± 0.007 µg/mL (≈ 2.34 µM)
- MIC [6]: 0.24 ± 0.07 µg/mL (≈ 0.687 µM)
- MIC [7]: 0.95 ± 0.13 µg/mL (≈ 2.72 µM)
- MIC [8]: 0.36 ± 0.001 µg/mL (≈ 1.03 µM)
- MIC ([9]; Aspergillus fumigatus, read-out: MIC values ASFU76): 0.64 ± 0.01 µg/mL (≈ 1.83 µM)
- MIC ([10]; Aspergillus fumigatus, read-out: MIC values ASFU35A): 0.6 ± 0.08 µg/mL (≈ 1.72 µM)
- MIC ([11]; Aspergillus fumigatus, read-out: MIC values ASFU38A): 0.75 ± 0.2 µg/mL (≈ 2.15 µM)
- MIC ([12]; Aspergillus fumigatus, read-out: MIC values ASFU7): 0.15 ± 0.001 µg/mL (≈ 0.429 µM)
- MIC ([13]; Aspergillus fumigatus, read-out: MIC values ASFU78): 0.59 ± 0.01 µg/mL (≈ 1.69 µM)
- MIC ([14]; Aspergillus fumigatus, read-out: MIC values ASFU13): 0.136 µg/mL (≈ 0.389 µM)
- MIC ([15]; Aspergillus fumigatus, read-out: MIC values ASFU17): 1.19 µg/mL (≈ 3.39 µM)
- MIC ([16]; Aspergillus fumigatus, read-out: MIC values ASFU19): 1.86 µg/mL (≈ 5.33 µM)
- MIC ([17]; Aspergillus fumigatus, read-out: MIC values ASFU77): 0.61 ± 0.04 µg/mL (≈ 1.75 µM)
- MIC ([18]; Aspergillus fumigatus, read-out: MIC values ASFU20): 0.178 µg/mL (≈ 0.51 µM)
- MIC ([19]; Aspergillus fumigatus, read-out: MIC values ASFU23): 0.097 µg/mL (≈ 0.278 µM)
